Measured values reported in patent US20130324503A1, “Method of identifying and treating a person having a predisposition to or afflicted with Parkinson disease” (Health Research Inc., priority 2010, published 2013).
Read-outs that look alike come from different tables or passages of the source.

Legend:
[1] = in vivo; cited from earlier work
[2] = test system: D. melanogaster w^1118 females
Procedure: (§1) All experiments were conducted with D. melanogaster w^1118 females (Bloomington Drosophila Stock Center) kept at consistent conditions at 25° C., 55% humidity, and ambient light. […] Flies were transferred to new vials every other day. […] These solutions were prepared fresh before each batch of media preparation and were added to warmed, liquefied standard fly food (prepared with agar, cornmeal, sucrose and yeast) and mixed thoroughly prior to pouring into vials. Food was prepared fresh at least monthly.
Flies were followed according to the same protocol, counting dead flies daily until all were dead. Survival data were plotted using Kaplan Meier survival analysis^17, mean and median survival times were calculated, and the differences between the survival curves were tested using log rank statistics in SPSS.

[3] = test system: D. melanogaster w^1118 females; conditions: in vivo
Procedure: as §1

CG14691 = assay type: in vivo, D. melanogaster; conditions: 5 mM paraquat for six days, compared to untreated flies
Procedure: as §1

[4] = 5 mM paraquat, nicotine 0 mg/ml

Row | Structure (SMILES) | Oral bioavailability [1] | Nicotine restored survival of paraquat-treated flies ([2]; in vivo) | effect on survival ([2]; in vivo) | improvement of survival of paraquat-treated flies ([2]; in vivo) | effect on survival [3] | shortening of lifespan ([2]; 5 mM paraquat vs untreated flies) | Mean survival Days ± SE [2, 4] | Median survival Days ± SE [2, 4] | Reduction of median survival by paraquat ([2]; in vivo) | rise in CG14691 expression (CG14691)
1 | CN1CCC[C@H]1c1cccnc1 [nicotine, 1-methyl-2-(3-pyridyl)pyrrolidone] | about 30% | ≤ 25% | beneficial effect | up to 25% | did not have a notable effect on survival |  |  |  |  | 
2 | C[n+]1ccc(-c2cc[n+](C)cc2)cc1 [paraquat, Methyl viologen dichloride hydrate] |  |  |  |  |  | 63% | 14.0 ± 0.4 days | 16 ± 0.5 days | Paraquat reduced median survival by 63% | 8%
